Measurements published in publication PMC3673472, “Structural and functional insight into the universal stress protein family” (Evolutionary Applications, 2013).

Tests used:
AF0826 = biological target: T1, AF0826 (Archaeoglobus fulgidus, UniProt O29432); assay: X-ray crystal structure of the complex ([…] Å); conditions: SeMet crystals (pH 5.5) soaked with a cocktail of adenine, adenosine, AMP, ADP, ATP, dAMP, cAMP, ADP-ribose; ligand identified from structure; ATP-binding site
T1 construct: gene AF_0826; N-terminal His6-TEV tag kept; selenomethionine-substituted; homodimer; strain printed only for AF1760 of the same species
T1 sequence (O29432 entry or part of it): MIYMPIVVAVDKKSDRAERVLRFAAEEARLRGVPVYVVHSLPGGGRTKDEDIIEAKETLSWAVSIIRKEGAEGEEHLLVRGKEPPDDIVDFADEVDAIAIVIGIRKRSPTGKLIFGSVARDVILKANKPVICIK

NE1028 = biological target: T2, NE1028 (Nitrosomonas europaea, UniProt Q82VN8); assay: X-ray crystal structure of the complex ([…] Å); conditions: cocrystallised with 10 mM AMP, pH 7.0, then soaked with 10 mM AMP for 24 h; ATP-binding site
T2 construct: full-length, N-terminal His6-TEV tag cleaved; wild type (not SeMet) in the AMP complex; homodimer
T2 sequence (Q82VN8 entry or part of it): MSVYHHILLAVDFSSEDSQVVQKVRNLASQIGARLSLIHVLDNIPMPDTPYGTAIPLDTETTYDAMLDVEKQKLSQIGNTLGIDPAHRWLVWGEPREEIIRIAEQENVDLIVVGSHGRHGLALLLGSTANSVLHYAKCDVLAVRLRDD

SMILES | X-ray crystal structure of the complex (2.10 Å) (AF0826) | X-ray crystal structure of the complex (2.00 Å) (NE1028)
Nc1ncnc2c1ncn2[C@H]1C[C@H](O)[C@@H](COP(=O)(O)O)O1 [dAMP] | we obtained the structure of AF0826 with dAMP bound in the vicinity | 
Nc1ncnc2c1ncn2[C@@H]1O[C@H](COP(=O)(O)O)[C@@H](O)[C@H]1O [AMP] |  | Our structure of NE1028–AMP confirms that the protein can bind at least one molecule
